Compound: COc1cccc2cc(-c3nc([C@H]4CC[C@H](C(=O)O)CC4)n4ncnc(N)c34)[nH]c12 [OSI-027]
Experiment: relative viability (nuclei count vs DMSO), 5 days (fraction); higher = more cells survive
Settings: 0.01 µM
Outline: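 In 1536-well plates, lung cancer cell lines rested overnight at 37 °C before five library-drug doses (not always all listed), √10 apart, were pinned onto vehicle-anchored plates. Nuclei were counted with MetaXpress from 4× Hoechst images taken after 5 days without medium change. Viability compares treated-well with vehicle-well nuclei as a median over plates, and plates needed control CV below 25% plus at least one doubling to pass.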

First: NCI-H1651
Second: PC-3 [JPC-3]
The relative viability of the first is lower: 0.96 for the first, 1.01 for the second.

First: SW 1573
Second: LK-2
The relative viability of the first is lower: 0.951 for the first, 1.02 for the second.

First: NCI-H2405
Second: NCI-H1703
The relative viability of the first is higher: 0.981 for the first, 0.913 for the second.

First: NCI-H1648
Second: NCI-H1993
The relative viability of the first is higher: 0.868 for the first, 0.803 for the second.

Going from ChaGo-K-1 to NCI-H1355, the relative viability falls from 0.989 to 0.985.

Compared with HCC-366, ABC-1 is lower in relative viability: 1.05 for the first, 0.874 for the second.

Compared with Calu-6, NCI-H1563 is lower in relative viability: 1.12 for the first, 0.979 for the second.

First: EBC-1
Second: A549
The relative viability of the first is lower: 0.943 for the first, 0.95 for the second.

First: IA-LM
Second: NCI-H596
The relative viability of the first is lower: 0.888 for the first, 0.971 for the second.

Same assay, conditions: 0.03162 µM

Compared with NCI-H2126, EPLC-272H is lower in relative viability: 1.02 for the first, 0.934 for the second.

Compared with NCI-H1755, NCI-H2023 is lower in relative viability: 0.921 for the first, 0.855 for the second.

Compared with NCI-H1623, NCI-H1650 is lower in relative viability: 0.912 for the first, 0.843 for the second.

First: NCI-H1793
Second: NCI-H2342
The relative viability of the first is higher: 0.976 for the first, 0.949 for the second.

First: H3255
Second: NCI-H1975
The relative viability of the first is higher: 1.11 for the first, 0.924 for the second.

Going from PC-14 to NCI-H1299, the relative viability falls from 1.04 to 0.995.

Going from NCI-H1437 to HOP-62, the relative viability rises from 0.921 to 1.07.

First: HCC-44
Second: BEN
The relative viability of the first is higher: 0.963 for the first, 0.82 for the second.

Going from LOU-NH91 to NCI-H661, the relative viability falls from 0.967 to 0.952.

Going from NCI-H1651 to PC-3 [JPC-3], the relative viability rises from 0.828 to 0.993.

First: SW 1573
Second: LK-2
The relative viability of the first is lower: 0.892 for the first, 0.914 for the second.

Going from NCI-H2405 to NCI-H1703, the relative viability falls from 0.981 to 0.948.

First: NCI-H1648
Second: NCI-H1993
The relative viability of the first is lower: 0.602 for the first, 0.817 for the second.

Compared with ChaGo-K-1, NCI-H1355 is higher in relative viability: 0.91 for the first, 0.985 for the second.

Compared with HCC-366, ABC-1 is higher in relative viability: 0.962 for the first, 1.03 for the second.

First: Calu-6
Second: NCI-H1563
The relative viability of the first is lower: 0.954 for the first, 0.955 for the second.

Going from EBC-1 to A549, the relative viability rises from 0.837 to 0.839.

Compared with IA-LM, NCI-H596 is higher in relative viability: 0.779 for the first, 0.927 for the second.

Same assay, conditions: 0.1 µM

Going from NCI-H2126 to EPLC-272H, the relative viability falls from 0.943 to 0.78.

Compared with NCI-H1755, NCI-H2023 is lower in relative viability: 0.988 for the first, 0.819 for the second.

Compared with NCI-H1623, NCI-H1650 is lower in relative viability: 1.02 for the first, 0.912 for the second.

Going from NCI-H1793 to NCI-H2342, the relative viability rises from 0.781 to 0.966.

Compared with H3255, NCI-H1975 is higher in relative viability: 0.893 for the first, 0.926 for the second.

First: PC-14
Second: NCI-H1299
The relative viability of the first is lower: 0.965 for the first, 1.02 for the second.

Compared with NCI-H1437, HOP-62 is lower in relative viability: 1.01 for the first, 1 for the second.

Going from HCC-44 to BEN, the relative viability falls from 0.928 to 0.647.

Compared with LOU-NH91, NCI-H661 is higher in relative viability: 0.786 for the first, 0.958 for the second.

Going from NCI-H1651 to PC-3 [JPC-3], the relative viability rises from 0.977 to 1.03.

First: SW 1573
Second: LK-2
The relative viability of the first is higher: 0.938 for the first, 0.703 for the second.

Going from NCI-H2405 to NCI-H1703, the relative viability falls from 0.887 to 0.759.

First: NCI-H1648
Second: NCI-H1993
The relative viability of the first is lower: 0.683 for the first, 0.704 for the second.

Compared with ChaGo-K-1, NCI-H1355 is lower in relative viability: 0.959 for the first, 0.898 for the second.

Compared with HCC-366, ABC-1 is lower in relative viability: 1.08 for the first, 0.825 for the second.

Compared with Calu-6, NCI-H1563 is lower in relative viability: 1.03 for the first, 0.953 for the second.

First: EBC-1
Second: A549
The relative viability of the first is lower: 0.909 for the first, 0.94 for the second.

Compared with IA-LM, NCI-H596 is higher in relative viability: 0.671 for the first, 0.889 for the second.

Same assay, conditions: 0.3162 µM

Going from NCI-H2126 to EPLC-272H, the relative viability falls from 0.873 to 0.514.

Compared with NCI-H1755, NCI-H2023 is lower in relative viability: 0.898 for the first, 0.566 for the second.

Going from NCI-H1623 to NCI-H1650, the relative viability rises from 0.77 to 0.893.

Compared with NCI-H1793, NCI-H2342 is higher in relative viability: 0.579 for the first, 0.843 for the second.

Compared with H3255, NCI-H1975 is higher in relative viability: 0.874 for the first, 0.953 for the second.

Going from PC-14 to NCI-H1299, the relative viability rises from 0.979 to 1.06.

First: NCI-H1437
Second: HOP-62
The relative viability of the first is lower: 0.914 for the first, 0.957 for the second.

Compared with HCC-44, BEN is lower in relative viability: 0.871 for the first, 0.475 for the second.

Compared with LOU-NH91, NCI-H661 is higher in relative viability: 0.776 for the first, 0.95 for the second.

First: NCI-H1651
Second: PC-3 [JPC-3]
The relative viability of the first is lower: 0.901 for the first, 0.918 for the second.

Compared with SW 1573, LK-2 is lower in relative viability: 0.878 for the first, 0.515 for the second.

Going from NCI-H2405 to NCI-H1703, the relative viability falls from 0.795 to 0.657.

Going from NCI-H1648 to NCI-H1993, the relative viability falls from 0.724 to 0.611.

Compared with ChaGo-K-1, NCI-H1355 is lower in relative viability: 0.9 for the first, 0.823 for the second.

Compared with HCC-366, ABC-1 is lower in relative viability: 1.05 for the first, 0.585 for the second.

Going from Calu-6 to NCI-H1563, the relative viability falls from 0.907 to 0.854.

Compared with EBC-1, A549 is lower in relative viability: 0.886 for the first, 0.788 for the second.

First: IA-LM
Second: NCI-H596
The relative viability of the first is lower: 0.293 for the first, 0.959 for the second.

Same assay, conditions: 0.5 µM; anchor plate

First: NCI-H2126
Second: EPLC-272H
The relative viability of the first is higher: 0.722 for the first, 0.289 for the second.

Compared with NCI-H1755, NCI-H2023 is lower in relative viability: 0.745 for the first, 0.429 for the second.

Compared with NCI-H1623, NCI-H1650 is higher in relative viability: 0.433 for the first, 0.689 for the second.

Compared with NCI-H1793, NCI-H2342 is higher in relative viability: 0.284 for the first, 0.622 for the second.

First: H3255
Second: NCI-H1975
The relative viability of the first is lower: 0.629 for the first, 0.729 for the second.

Compared with PC-14, NCI-H1437 is higher in relative viability: 0.815 for the first, 0.881 for the second.

First: HOP-62
Second: HCC-44
The relative viability of the first is higher: 0.831 for the first, 0.634 for the second.

Going from BEN to LOU-NH91, the relative viability rises from 0.296 to 0.72.

Going from NCI-H661 to NCI-H1651, the relative viability falls from 0.735 to 0.71.

Going from PC-3 [JPC-3] to SW 1573, the relative viability falls from 0.745 to 0.671.

Compared with LK-2, NCI-H2405 is higher in relative viability: 0.221 for the first, 0.646 for the second.

Compared with NCI-H1648, NCI-H1993 is higher in relative viability: 0.266 for the first, 0.558 for the second.

First: ChaGo-K-1
Second: NCI-H1355
The relative viability of the first is higher: 0.63 for the first, 0.451 for the second.

First: HCC-366
Second: ABC-1
The relative viability of the first is higher: 0.911 for the first, 0.499 for the second.
